Literature values, collected in US20040248979A1, “Method of treating lower urinary tract disorders” (DYNOGEN PHARMACEUTICALS, INC., priority 2003, published 2004).

Experiments:
[1] = test system: opioid receptors
[2] = test system: α2δ subunits of calcium channels
[3] = preclinical and clinical studies

For `COc1cccc([C@]2(O)CCCC[C@H]2CN(C)C)c1` (racemic) [Tramadol, (+/−)cis-2-[(dimethylamino)methyl]-1-(3-methoxyphenyl) cyclohexanol], the “affinity for opioid receptors” value [1] is given as “low affinity”.
In the case of `NCC1(CC(=O)O)CCCCC1` [Gabapentin, 1-(aminomethyl) cyclohexaneacetic acid], the “binding affinity for calcium channel subunits” value [2] is listed as “high binding affinity”.
For `CC(C)C[C@H](CN)CC(=O)O` [Pregabalin, (3S)-3-(aminomethyl)-5-methylhexanoic acid], the “binding affinity for calcium channel subunits” value [2] is listed as “even higher binding affinity for certain α2δ subunits of calcium channels than gabapentin”.
In the case of `CC(OC(=O)NCC1(CC(=O)O)CCCCC1)OC(=O)C(C)C` (centres unmarked) [XP13512], the “blood levels of gabapentin across oral doses” value ([3]; broad range of oral doses) is listed as “dose proportional blood levels of gabapentin” and the “absorption from the large intestine” value [3] is listed as “absorbed efficiently from the large intestine”.
